In patent US20070112018A1, “Treatment of peripheral arterial occlusive disease” (priority 2005, published 2007):

Legend:
C. pneumoniae [1] = details: cited from earlier work
[2] = male, human, in vivo
Description: In another study, three dose levels of rifalazil were administered for the treatment of non-gonococcal urethritis in 170 male patients. Doses used were in this study were single-doses of 2.5, 12.5 mg and 25 mg. Males were between 18-45 years of age with signs or symptoms of urethritis, including urethral discharge.

[3] = in vivo; cited from earlier work
C. pneumoniae [4] = assay: Rabbit model of atherosclerosis accelerated by C. pneumoniae infection, cholesterol diet; details: C. pneumoniae-infected rabbits; rifalazil 5 mg/kg or azithromycin 30 mg/kg PO daily 1 week then twice weekly 6 weeks; 19 weeks after beginning treatment
Description: Thirty received three separate C. pneumoniae inoculations performed at 3-week intervals. Similarly, 15 control rabbits were intranasally inoculated with 1 mL of normal saline under the same conditions.
Nineteen weeks after beginning antibiotic treatment, the rabbits were euthanized. After euthanasia, hearts were examined histologically and by immunofluorescence. Animal serum samples were also examined for seropositivity to the infecting organism.

[5] = 300 mg, 3 days, 2 years of follow-up; cited from earlier work

SMILES: CC[C@H]1OC(=O)[C@H](C)[C@@H](O[C@H]2C[C@@](C)(OC)[C@@H](O)[C@H](C)O2)[C@H](C)[C@@H](O[C@@H]2O[C@H](C)C[C@H](N(C)C)[C@H]2O)[C@](C)(O)C[C@@H](C)/C(=N\OCOCCOC)[C@H](C)[C@@H](O)[C@]1(C)O [roxithromycin]
- prevention of progression of lower limb atherosclerosis (C. pneumoniae [1]; daily for 28 days, C. pneumoniae seropositive men, almost 3 years): statistically significant benefit
- number of invasive revascularization procedures (C. pneumoniae [1]; daily for 28 days): reduced the number of invasive revascularization procedures
- soft plaque components in carotid arteries (C. pneumoniae [1]; over a 6-month period): statistically significant reduction of soft plaque components

SMILES: CC[C@H]1OC(=O)[C@H](C)[C@@H](O[C@H]2C[C@@](C)(OC)[C@@H](O)[C@H](C)O2)[C@H](C)[C@@H](O[C@@H]2O[C@H](C)C[C@H](N(C)C)[C@H]2O)[C@](C)(O)C[C@@H](C)CN(C)[C@H](C)[C@@H](O)[C@]1(C)O [azithromycin]
- incidence of AEs considered possibly related to study drug [2]: 24%
- incidence of clinically significant laboratory abnormalities [2]: 21%
- t1/2 [3]: 65 h
- Plaque Area Stenosis (%) (C. pneumoniae [4]): 30.2%
- morbidity or mortality in PAOD patients [5]: no significant reduction of morbidity or mortality

SMILES: CN[C@H]1C(=O)N[C@@H]2Cc3ccc(cc3)Oc3cc4cc(c3O[C@@H]3O[C@H](C(=O)O)[C@@H](O)[C@H](O)[C@H]3NC(=O)CCCCCCCCC(C)C)Oc3ccc(cc3Cl)[C@@H](O)[C@@H]3NC(=O)[C@H](NC(=O)[C@@H]4NC(=O)[C@@H](NC2=O)c2cc(cc(O)c2Cl)Oc2cc1ccc2O)c1ccc(O)c(c1)-c1c(O[C@H]2O[C@H](CO)[C@@H](O)[C@H](O)[C@@H]2O)cc(O)cc1[C@@H](C(=O)NCCCN(C)C)NC3=O [Dalbavancin]
- t1/2 [3]: approximately 180 hours
